In brackets after ≈: the same amount, converted by molar mass. Where two headings read alike, the source gives them in different places.
Key:
[1] = tested on: Escherichia coli ATCC 29194; test: MIC, Table 12; format: cell-based; settings: ATCC29194, Muller-Hinton II Broth
[2] = tested on: Klebsiella pneumonia ATCC 33495; test: MIC, Table 12; format: cell-based; settings: Klebsiella pneumoniae, ATCC33495, Muller-Hinton II Broth
Description: (§1) Table 12 illustrates the results and the minimal inhibitory concentration (MIC) for S. aureus, Enterococcus faecalis, Pseudomonas aeruginosa, Klebsiella pneumonia, and Proteus mirabilis. The inoculum is about 1.5×10^5 CFU/mL. The minimal inhibitory concentrations (MIC) were done in Muller-Hinton II Broth with the exception of Enterococcus faecalis ATCC 29212, which was done in Brain Heart Infusion Broth. The concentration of DMSO at 200 μg/mL was 10%.

[3] = tested on: Proteus mirabilis ATCC 35659; test: MIC, Table 12; format: cell-based; settings: ATCC35659, Muller-Hinton II Broth
Description: as §1

[4] = tested on: Staphylococcus aureus ATCC 29213; test: MIC, Table 12; format: cell-based
Description: as §1

[5] = tested on: Staphylococcus aureus NRS1 (Mec^r. Vani); test: MIC, Table 12; format: cell-based
Description: as §1

[6] = tested on: Staphylococcus aureus (COLVA); test: MIC, Table 12; format: cell-based
Description: as §1

[7] = tested on: Enterococcus faecalis ATCC 29212; test: MIC, Table 12; format: cell-based
Description: as §1

[8] = tested on: Pseudomonas aeruginosa ATCC 27853; test: MIC, Table 12; format: cell-based; settings: ATCC27853, Muller-Hinton II Broth
Description: as §1

[9] = tested on: Staphylococcus aureus NRS100 (COL); test: MIC, Table 12; format: cell-based
Description: as §1

[10] = tested on: S. aureus NRS100 (Mec^R); test: MIC against S. aureus NRS100 (Table 14); format: cell-based, Staphylococcus aureus; settings: Staphylococcus aureus, compounds dissolved in DMSO or 1% sodium carbonate, read-out: MIC
Description: The recited compounds were dissolved in DMSO or in 1% sodium carbonate and transferred into micro titer plate to final concentration of 1000 μg/mL.

[11] = molecular target: P99 (class C β-lactamase) (Enterobacter cloacae, UniProt P05364); test: β-Lactamase assay (nitrocefin colour change), P99; format: biochemical; settings: for P99: Table 10, class symbols x/xx/xxx, key not given; for IC50: nitrocefin 100 μM, 10 nM enzyme, 5 min pre-incubation, read-out: IC50s P99
Chain of P99 (class C β-lactamase) (P05364 21-381): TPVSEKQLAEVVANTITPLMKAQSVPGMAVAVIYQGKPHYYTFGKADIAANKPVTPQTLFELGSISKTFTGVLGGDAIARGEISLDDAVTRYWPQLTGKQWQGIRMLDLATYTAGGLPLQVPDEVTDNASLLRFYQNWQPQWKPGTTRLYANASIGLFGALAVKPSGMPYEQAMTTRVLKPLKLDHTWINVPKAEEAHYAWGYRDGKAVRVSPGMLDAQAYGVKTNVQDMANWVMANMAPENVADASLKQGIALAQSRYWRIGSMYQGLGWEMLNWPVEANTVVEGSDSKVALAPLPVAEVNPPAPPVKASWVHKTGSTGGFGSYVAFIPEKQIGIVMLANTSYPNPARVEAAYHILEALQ
Description: (§2) β-Lactamase Assays (TEM-1, P99, and OXA-10): The activity of the compounds of the invention (inhibitors) toward β-lactamases was evaluated using 96 well plates. The reaction mixture included 10 mM sodium phosphate, pH 7.0, 150 mM sodium chloride, 0.01% Triton X-100, 100 μM nitrocefin, 10 nM of β-lactamases (class A: TEM-1; class C: P99, or class D: OXA-10), and variable concentrations of the inhibitors in a total volume of 100 μL. β-Lactamases were pre-incubated with the compounds at room temperature for 5 minutes, and the assay was initiated by the addition of nitrocefin. The inhibition of the enzyme activity by the compounds was determined by monitoring color change (from yellow to red) of nitrocefin after 20 minutes. Stock solutions of the compounds were prepared in dimethyl sulfoxide (DMSO). No more than 5% DMSO was present in assays, unless noted otherwise. B1aR Assay: The surface domain of B1aR (1 μM) was added to each inhibitor (at various concentrations) in 100 mM sodium phosphate, 50 mM sodium bicarbonate, at pH 7.0. The reaction mixtures were incubated at room temperature for 20 minutes. BOCILLIN FL, a fluorogenic ligand, was added to a concentration of 20 μM in a final volume of 20 μL. The mixtures were incubated at 37° C. for 5 minutes, at which point the reactions were quenched by the addition of 15 μL of the SDS sample buffer (125 mM Tris, 4% SDS, 20% glycerol, 2% 2-mercaptoethanol, pH 6.8), and were boiled for 4 minutes. The samples were loaded onto 15% SDS-PAGE, the gel was developed and scanned using a Storm 840® Fluorimager. The fluorescent bands of BOCILLIN FL-labeled B1aR^S were analyzed by Image Quant 5.2 software. PBP2 Assay: The PBP2 assay was performed according to the methods of Villegas-Esterada et al. (J. Am. Chem. Soc. 2008, 130, 9212-9213).

[12] = molecular target: TEM-1 (class A β-lactamase) (Escherichia coli, UniProt P62593); test: β-Lactamase assay (nitrocefin colour change), TEM-1; format: biochemical; settings: for TEM-1: Table 10, class symbols x/xx/xxx, key not given
Chain of TEM-1 (class A β-lactamase) (P62593 24-286 limits assumed): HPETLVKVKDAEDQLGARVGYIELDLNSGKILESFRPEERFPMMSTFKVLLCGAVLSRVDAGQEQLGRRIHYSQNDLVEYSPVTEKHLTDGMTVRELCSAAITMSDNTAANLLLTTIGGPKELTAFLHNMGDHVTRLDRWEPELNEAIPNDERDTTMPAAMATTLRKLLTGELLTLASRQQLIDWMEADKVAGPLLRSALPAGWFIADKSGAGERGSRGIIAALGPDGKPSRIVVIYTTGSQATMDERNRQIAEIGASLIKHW
Description: as §2

[13] = molecular target: OXA-10 (class D β-lactamase) (Pseudomonas aeruginosa, UniProt P14489); test: β-Lactamase assay (nitrocefin colour change), OXA-10; format: biochemical; settings: for OXA-10: Table 10, class symbols x/xx/xxx, key not given; for IC50: nitrocefin 100 μM, 10 nM enzyme, 5 min pre-incubation, read-out: IC50s OXA-10
Chain of OXA-10 (class D β-lactamase) (P14489 20-266, species assumed): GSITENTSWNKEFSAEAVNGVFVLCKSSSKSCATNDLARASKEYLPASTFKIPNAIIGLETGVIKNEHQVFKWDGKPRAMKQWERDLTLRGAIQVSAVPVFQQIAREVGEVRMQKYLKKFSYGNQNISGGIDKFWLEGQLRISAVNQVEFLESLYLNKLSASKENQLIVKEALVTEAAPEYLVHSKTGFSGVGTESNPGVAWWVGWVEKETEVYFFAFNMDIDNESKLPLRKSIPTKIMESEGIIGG
Description: as §2

[14] = molecular target: surface domain of B1aR (Staphylococcus aureus, UniProt P18357); test: B1aR assay (BOCILLIN FL labeling, SDS-PAGE); format: binding, Staphylococcus aureus (MRSA); settings: Table 10; class symbols x/xx/xxx, key not given
Chain of surface domain of B1aR (P18357 331-585): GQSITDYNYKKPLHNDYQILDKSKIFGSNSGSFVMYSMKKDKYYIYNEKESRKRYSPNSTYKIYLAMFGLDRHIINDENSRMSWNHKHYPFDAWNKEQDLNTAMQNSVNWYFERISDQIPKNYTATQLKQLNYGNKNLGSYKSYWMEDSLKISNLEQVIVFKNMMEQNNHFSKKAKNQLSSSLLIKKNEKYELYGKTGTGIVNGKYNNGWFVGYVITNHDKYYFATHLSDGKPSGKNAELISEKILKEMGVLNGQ
Description: as §2

[15] = molecular target: PBP2a (Staphylococcus aureus, UniProt P07944); test: PBP2 assay (Villegas-Esterada et al.); format: biochemical; settings: Table 10
Chain of PBP2a (P07944 whole entry): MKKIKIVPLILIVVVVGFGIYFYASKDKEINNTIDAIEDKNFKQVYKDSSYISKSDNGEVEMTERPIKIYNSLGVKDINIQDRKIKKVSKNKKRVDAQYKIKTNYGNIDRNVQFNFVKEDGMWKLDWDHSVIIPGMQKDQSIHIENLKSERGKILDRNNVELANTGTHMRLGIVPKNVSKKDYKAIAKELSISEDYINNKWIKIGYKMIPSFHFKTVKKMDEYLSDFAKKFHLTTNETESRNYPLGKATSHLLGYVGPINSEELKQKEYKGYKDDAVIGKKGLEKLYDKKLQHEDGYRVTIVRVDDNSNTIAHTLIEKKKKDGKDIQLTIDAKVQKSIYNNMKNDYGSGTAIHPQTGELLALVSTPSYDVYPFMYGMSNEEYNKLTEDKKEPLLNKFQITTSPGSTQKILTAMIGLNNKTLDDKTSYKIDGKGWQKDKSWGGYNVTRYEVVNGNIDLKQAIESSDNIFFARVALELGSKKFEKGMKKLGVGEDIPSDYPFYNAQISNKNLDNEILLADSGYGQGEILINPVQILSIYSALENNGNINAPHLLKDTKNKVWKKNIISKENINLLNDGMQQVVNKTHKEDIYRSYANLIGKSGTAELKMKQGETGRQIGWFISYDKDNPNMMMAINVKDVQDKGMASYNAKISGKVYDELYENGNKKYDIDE
Description: as §2

[16] = tested on: methicillin-resistant strains of S. aureus; test: MIC against methicillin-resistant S. aureus (Table 15); format: cell-based; settings: Staphylococcus aureus, dissolved in 100% DMSO, diluted into Mueller Hinton II Broth to final 16 μg/mL
Text: Table 15 illustrates the inhibition of methicillin-resistant strains of S. aureus by selected compounds of the invention.

[17] = ATCC29213, Staphylococcus aureus ATCC 29213, Muller-Hinton II Broth, read-out: MIC
[18] = Staphylococcus aureus NRS1 (Mec^r. Vani), Muller-Hinton II Broth, read-out: MIC
[19] = ATCC29212, Enterococcus faecalis ATCC 29212, Brain Heart Infusion Broth, inoculum about 1.5×10^5 CFU/mL, read-out: MIC
[20] = Staphylococcus aureus NRS100 (COL), Muller-Hinton II Broth, read-out: MIC

Compound	MIC [1] [µg/mL]	MIC [2] [µg/mL]	MIC [3] [µg/mL]	MIC [4, 17] [µg/mL]	MIC [5, 18] [µg/mL]	MIC ([6]; Staphylococcus aureus) [µg/mL]	MIC [7, 19] [µg/mL]	MIC [8] [µg/mL]	MIC [9, 20] [µg/mL]	MIC [10] [µg/mL]	P99 [11]	IC50 [11] [µM]	IC50 [12] [nM]	TEM-1 [12]	OXA-10 [13]	IC50 [13] [µM]	BlaR [14]	PBP2a* (inhibitory concentration) [15]	MIC [16] [µg/mL]	also measured
O=C(O)c1c(Br)c(Br)c(Br)c(Br)c1C(=O)Nc1ccc(OCc2ccccc2)c(Cl)c1 [Compound 239]	400 (≈ 574 µM)	200 (≈ 287 µM)	400 (≈ 574 µM)	25 (≈ 35.8 µM)	50 (≈ 71.7 µM)	25 (≈ 35.8 µM)	200 (≈ 287 µM)	200 (≈ 287 µM)	100 (≈ 143 µM)	–	–	–	–	–	–	–	–	–	–	–
O=C(O)c1c(Cl)c(Cl)c(Cl)c(Cl)c1C(=O)Nc1ccc(OCc2ccccc2)c(Cl)c1 [Compound 253]	400 (≈ 770 µM)	200 (≈ 385 µM)	400 (≈ 770 µM)	50 (≈ 96.2 µM)	50 (≈ 96.2 µM)	50 (≈ 96.2 µM)	200 (≈ 385 µM)	200 (≈ 385 µM)	50 (≈ 96.2 µM)	> 16	xxx	105 ± 8.7	32300 ± 5900	xxx	xxx	222 ± 17	xx	–	–	–
CCCCCCCCOc1ccc(NC(=O)c2c(Cl)c(Cl)c(Cl)c(Cl)c2C(=O)O)cc1 [Compound 265]	200 (≈ 394 µM)	200 (≈ 394 µM)	200 (≈ 394 µM)	6 (≈ 11.8 µM)	6 (≈ 11.8 µM)	6 (≈ 11.8 µM)	6 (≈ 11.8 µM)	200 (≈ 394 µM)	6 (≈ 11.8 µM)	–	xxx	10.3 ± 0.3	3600 ± 500	xxx	xxx	9.9 ± 0.8	–	–	–	–
CCCCCCCCOc1ccc(NC(=O)c2c(Br)c(Br)c(Br)c(Br)c2C(=O)O)cc1 [Compound 274]	400 (≈ 584 µM)	200 (≈ 292 µM)	400 (≈ 584 µM)	3 (≈ 4.38 µM)	3 (≈ 4.38 µM)	3 (≈ 4.38 µM)	100 (≈ 146 µM)	200 (≈ 292 µM)	3 (≈ 4.38 µM)	–	xxx	3.1 ± 0.5	2400 ± 100	xxx	xxx	5.5 ± 0.5	–	–	–	–
O=C(O)c1c(Br)c(Br)c(Br)c(Br)c1C(=O)Nc1ccc(Oc2cc(C(F)(F)F)cc(C(F)(F)F)c2)cc1 [Compound 414]	–	–	–	–	–	–	–	–	–	4 (≈ 5.1 µM)	xxx	12 ± 0.5	4500 ± 400	xxx	xxx	19.5 ± 2	xxx	xxx	4 (≈ 5.1 µM)	–
O=C(O)c1c(Cl)c(Cl)c(Cl)c(Cl)c1C(=O)Nc1ccc(OCc2cccc(OC(F)(F)F)c2)c(Cl)c1 [Compound 419]	–	–	–	–	–	–	–	–	–	8 (≈ 13.3 µM)	xx	13 ± 2	2300 ± 100	xxx	xxx	10.8 ± 0.7	xxx	xxx	8 (≈ 13.3 µM)	–
O=C(O)c1c(Br)c(Br)c(Br)c(Br)c1C(=O)Nc1ccc(OCc2cccc(OC(F)(F)F)c2)c(Cl)c1 [Compound 420]	–	–	–	–	–	–	–	–	–	8 (≈ 10.2 µM)	xx	6.9 ± 1.5	1600 ± 100	xxx	xxx	8.4 ± 1.1	xxx	xxx	4 (≈ 5.12 µM)	–
Cc1onc(-c2ccccc2)c1C(=O)N[C@@H]1C(=O)N2[C@@H]1SC(C)(C)[C@@H]2C(=O)O [Oxaxillian, reference compound]	–	–	–	–	–	–	–	–	–	–	–	–	–	–	–	–	–	–	–	MIC ([4]; Staphylococcus aureus ATCC 29213, Muller-Hinton II Broth): <0.5 µg/mL; MIC ([5]; Staphylococcus aureus NRS1 (Mec^r. Vani), Muller-Hinton II Broth): 500 µg/mL (≈ 1250 µM); MIC ([6]; Staphylococcus aureus (COLVA), Muller-Hinton II Broth): 500 µg/mL (≈ 1250 µM); MIC ([7]; Enterococcus faecalis ATCC 29212, Brain Heart Infusion Broth, inoculum about 1.5×10^5 CFU/mL): 8 µg/mL (≈ 19.9 µM); MIC ([9]; Staphylococcus aureus NRS100 (COL), Muller-Hinton II Broth): 500 µg/mL (≈ 1250 µM)
CN[C@H](CC(C)C)C(=O)N[C@H]1C(=O)N[C@@H](CC(N)=O)C(=O)N[C@H]2C(=O)N[C@H]3C(=O)N[C@H](C(=O)N[C@H](C(=O)O)c4cc(O)cc(O)c4-c4cc3ccc4O)[C@H](O)c3ccc(c(Cl)c3)Oc3cc2cc(c3O[C@@H]2O[C@H](CO)[C@@H](O)[C@H](O)[C@H]2O[C@H]2C[C@](C)(N)[C@H](O)[C@H](C)O2)Oc2ccc(cc2Cl)[C@H]1O [Vancomycin, reference compound]	–	–	–	–	–	1000 (≈ 690 µM)	–	–	–	–	–	–	–	–	–	–	–	–	–	MIC ([4]; Staphylococcus aureus, ATCC29213): 1 µg/mL (≈ 0.69 µM); MIC ([5]; Staphylococcus aureus, NRS1): 4 µg/mL (≈ 2.76 µM); MIC ([7]; Enterococcus faecalis, ATCC29212): 4 µg/mL (≈ 2.76 µM); MIC ([9]; Staphylococcus aureus, NRS100): 1 µg/mL (≈ 0.69 µM)
